Assay results: patent US11945799B2, “4-ethynylpyridine derivatives useful as GCN2 inhibitors” (IP2IPO INNOVATIONS LIMITED, priority 2020, dated 2024)
Where two headings read alike, the source gives them in different places.

Experiments:
[1] = molecular target: T1, full-length human GCN2 enzyme (Homo sapiens, UniProt Q9P2K8); assay: GCN2 enzyme inhibition, LanthaScreen TR-FRET Kinase Activity assay (10 μM and 300 μM ATP); assay type: biochemical; details: mean of replicate assays
T1 construct: purchased Carna Bioscience
T1 sequence (Q9P2K8 whole entry): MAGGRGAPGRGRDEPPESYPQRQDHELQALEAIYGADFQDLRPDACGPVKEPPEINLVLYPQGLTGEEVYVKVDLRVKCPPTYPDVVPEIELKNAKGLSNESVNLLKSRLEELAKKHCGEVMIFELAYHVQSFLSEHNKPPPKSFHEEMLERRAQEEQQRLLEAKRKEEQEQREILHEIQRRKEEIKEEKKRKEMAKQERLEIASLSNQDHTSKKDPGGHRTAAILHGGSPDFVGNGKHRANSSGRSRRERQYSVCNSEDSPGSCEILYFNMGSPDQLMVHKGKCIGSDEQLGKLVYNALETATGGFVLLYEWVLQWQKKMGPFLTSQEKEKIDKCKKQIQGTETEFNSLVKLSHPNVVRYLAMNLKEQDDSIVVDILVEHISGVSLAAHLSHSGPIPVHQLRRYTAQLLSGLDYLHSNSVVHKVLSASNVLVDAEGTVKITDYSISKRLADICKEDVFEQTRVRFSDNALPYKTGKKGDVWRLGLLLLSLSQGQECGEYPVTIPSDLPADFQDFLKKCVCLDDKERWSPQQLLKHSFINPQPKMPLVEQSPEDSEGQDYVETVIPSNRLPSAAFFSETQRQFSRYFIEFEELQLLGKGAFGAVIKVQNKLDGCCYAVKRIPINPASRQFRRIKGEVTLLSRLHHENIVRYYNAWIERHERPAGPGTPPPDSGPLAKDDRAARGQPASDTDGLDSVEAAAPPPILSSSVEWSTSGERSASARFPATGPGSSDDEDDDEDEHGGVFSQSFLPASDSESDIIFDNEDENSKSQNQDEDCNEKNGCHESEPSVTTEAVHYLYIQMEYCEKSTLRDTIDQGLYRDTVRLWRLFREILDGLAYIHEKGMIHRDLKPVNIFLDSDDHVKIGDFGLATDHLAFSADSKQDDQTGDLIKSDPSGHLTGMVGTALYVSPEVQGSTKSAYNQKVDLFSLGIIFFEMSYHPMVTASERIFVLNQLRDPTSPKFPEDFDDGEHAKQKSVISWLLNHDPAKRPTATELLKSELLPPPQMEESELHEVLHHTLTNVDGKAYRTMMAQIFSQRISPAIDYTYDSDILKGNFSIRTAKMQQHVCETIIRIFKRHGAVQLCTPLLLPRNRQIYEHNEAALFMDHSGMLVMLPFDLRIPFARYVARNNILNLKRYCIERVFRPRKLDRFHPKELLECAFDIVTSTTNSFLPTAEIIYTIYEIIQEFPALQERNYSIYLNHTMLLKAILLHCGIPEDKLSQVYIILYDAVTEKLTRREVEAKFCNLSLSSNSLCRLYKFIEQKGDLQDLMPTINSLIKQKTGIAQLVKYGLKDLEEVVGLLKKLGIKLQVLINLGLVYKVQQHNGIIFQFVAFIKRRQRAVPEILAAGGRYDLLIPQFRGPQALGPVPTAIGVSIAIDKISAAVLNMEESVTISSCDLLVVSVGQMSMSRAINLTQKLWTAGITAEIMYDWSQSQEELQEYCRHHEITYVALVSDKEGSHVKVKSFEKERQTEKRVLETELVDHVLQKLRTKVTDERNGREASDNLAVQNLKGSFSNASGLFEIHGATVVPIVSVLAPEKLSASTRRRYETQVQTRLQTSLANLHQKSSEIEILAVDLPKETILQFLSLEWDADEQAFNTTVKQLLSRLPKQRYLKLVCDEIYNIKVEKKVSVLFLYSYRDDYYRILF
Description: Biological and Pharmacokinetic Testing (a) GCN2 Enzyme Inhibition (10 μM and 300 μM Assays) Assay Protocol Overview:
The inhibitory activity of the Example compounds towards GCN2 enzyme was measured according to the description below, using a LanthaScreen TR-FRET (Time Resolved Fluorescence Resonance Energy Transfer) Kinase Activity assay distributed by ThermoFisher Scientific.
The full-length human GCN2 enzyme (UniProt accession number Q9P2K8) was used for all experiments (Carna Bioscience). The TR-FRET pair was composed of GFP-eIF2α and LanthaScreen Terbium-labeled anti-peIF2α (pSer52) Antibody.
Each example compound was dissolved in DMSO (0.15 mM) and dispensed in a 384-well plate by a D300 dispenser (Tecan) to a final concentration range 3000-0.13 nM using the logarithmic dilution mode in 2 replicates. Full inhibition (3000 nM commercial reference inhibitor) and DMSO vehicle control wells were also included on the same plate. All volumes were normalized to the final DMSO concentration of 2% of the reaction volume. Next, 5 μL of H2O was added to each well of the plate.
The enzyme mixture was prepared to obtain the following concentrations: • GCN2—30 nM • unloaded tRNA—0.3 nM • HEPES (pH=7.0)—100 mM • MgCl2—20 mM; MnCl2—10 mM
The mixture was applied by adding 5 μL to each well of the plate. The enzyme and the tested compound were then incubated at room temperature for 20 min while shaking at 450 rpm.
The substrate mixture was prepared to obtain the following concentrations: • GFP-eIF2α—240 nM • ATP—900 μM or 30 μM • HEPES (pH=7.0)—50 mM • MgCl2—10 mM • MnCl2—5 mM.
The mixture was applied by adding 5 μL to each well of the plate. Thus, the final concentrations of the 15 μL reaction mixture were as follows: • GCN2—10 nM • unloaded tRNA—0.1 nM • GFP-eIF2α—80 nM • ATP—300 μM or 10 μM • HEPES (1 M, pH=7.0)—50 mM • MgCl2—10 mM • MnCl2—5 mM.
The reaction was allowed to proceed at room temperature for 30 min while shaking at 450 rpm.
The antibody mixture was prepared to obtain the following concentrations: • Na2EDTA·2H2O—40 mM, in TR-FRET Dilution Buffer (Life technologies) • Tb—anti-peIF2a antibodies—4 nM.
The mixture was applied by adding 15 μL to each well. The plate was then incubated at room temperature for 60 min while shaking at 450 rpm and then read using Tecan Spark reader using specific TR-FRET filters.
The analysis of the GFP/Tb fluorescence results was conducted with GraphPad Prism to determine IC50 for each of the example compounds using 4-parameter model: log(inhibitor) vs. response-variable slope. IC50 and K, values were calculated in the usual way. The assay was carried out between 1 and 15 times. The results in the table below are the mean results from replicate assays for the compound in question, where applicable.

[2] = Kinetic solubility in PBS buffer pH 7.4; assay type: physicochemical; details: aqueous buffer, kinetic from dmso stock; PBS buffer pH 7.4, 90 minutes at room temperature, from 10 mM DMSO stock
Description: The kinetic solubility assay investigates a solubility based on the amount of material which remains in solution after a precipitation process. […] Assay is performed using Multiscreen Vacuum Manifold. A buffer of interest (in standard protocol PBS buffer at pH=7.4 is used) is spiked with stock solution and incubated for 90 minutes at room temperature. After that time solution/suspension is filtrated. The concentration of each compound is determined on the base of prepared calibration curve using UV-VIS spectrophotometry method. The assay is made in triplicate.
Buffer of interest: 0.24 g of KH2PO4, 1.44 g of Na2HPO4, 0.2 g of KCl and 8 g NaCl and dissolve in 1 L distilled H2O; adjust pH to appropriate value (pH 7.4). 190 μl of buffer of interest was dispensed into the wells of a 96 well filter plate, followed by 10 μl of compound (10 mM stock solution in DMSO). The plate was shaken gently at room temperature for 90 minutes at 500 rpm using a BioSan, Plate Shaker-Thermostat, PST-60 HL-4. After 90 minutes, the plate was filtered using a vacuum manifold and vacuum pump. 100 μl of each filtrate and 100 μl acetonitrile was transferred to a 96 well UV-visible light transparent plate and the UV-visible absorption spectrum was measured using a Biotek Synergy 2 multiplate reader from 250-500 nm, interval range 10 nm. The amount of test compound was calculated using a calibration curve prepared by serial dilution of compounds in equivalent amounts of DMSO and acetonitrile.

[3] = read-out: GCN2 IC50 (nM) 300 uM ATP, 300 uM ATP
[4] = read-out: GCN2 Ki (nM) 300 uM ATP, 300 uM ATP
[5] = read-out: GCN2 IC50 (nM) 10 uM ATP, 10 uM ATP
[6] = read-out: GCN2 Ki (nM) 10 uM ATP, 10 uM ATP

CNc1ncc(C#Cc2ccnc(NS(=O)(=O)c3cc(Cl)cnc3OC)c2F)cn1 [Example 25, 5-chloro-N-(3-fluoro-4-{2-[2-(methylamino)pyrimidin-5-yl]ethynyl}pyridin-2-yl)-2-methoxypyridine-3-sulfonamide]
IC50 [1, 3]: 110 nM
Ki [1, 4]: 1.7 nM
solubility kinetic at 90 min [2]: 208 µg/mL

COc1nc(N)ncc1C#Cc1ccnc(NS(=O)(=O)c2cc(Cl)cnc2OC)c1F [Example 35, N-{4-[2-(2-amino-4-methoxypyrimidin-5-yl)ethynyl]-3-fluoropyridin-2-yl}-5-chloro-2-methoxypyridine-3-sulfonamide]
IC50 [1, 3]: 328 nM
Ki [1, 4]: 5 nM

COc1ncc(Cl)cc1S(=O)(=O)Nc1nccc(C#Cc2cnc3[nH]c(=O)n(C)c3c2)c1F [Example 36, 5-chloro-N-[3-fluoro-4-(2-{1-methyl-2-oxo-1H,2H,3H-imidazo[4,5-b]pyridin-6-yl}ethynyl)pyridin-2-yl]-2-methoxypyridine-3-sulfonamide]
IC50 [1, 3]: 182 nM
Ki [1, 4]: 2.8 nM
solubility kinetic at 90 min [2]: 240 µg/mL

COc1ncc(Cl)cc1S(=O)(=O)Nc1nccc(C#Cc2cnc3ccccc3n2)c1F [Example 9, 5-chloro N-{4-[2-(quinoxalin-2-yl)ethynyl]-3-fluoropyridin-2-yl}-2-methoxypyridine-3-sulfonamide]
IC50 [1, 5]: 7.5 nM
IC50 [1, 3]: 112 nM
Ki [1, 6]: 2.4 nM
Ki [1, 4]: 1.7 nM
solubility kinetic at 90 min [2]: 134 µg/mL

COc1ncc(Cl)cc1S(=O)(=O)Nc1nccc(C#Cc2cncc3cccnc23)c1F [Example 6, 5-chloro-N-{4-[2-(1,6-naphthyridin-8-yl)ethynyl]-3-fluoropyridin-2-yl}-2-methoxypyridine-3-sulfonamide]
IC50 [1, 5]: 6.7 nM
IC50 [1, 3]: 49.3 nM
Ki [1, 6]: 2.1 nM
Ki [1, 4]: 0.8 nM
solubility kinetic at 90 min [2]: 40.3 µg/mL

Nc1ncc(C#Cc2ccnc(NS(=O)(=O)c3cc(Cl)ccc3Cl)c2F)cn1 [Example 15, N-{4-[2-(2-aminopyrimidin-5-yl)ethynyl]-3-fluoropyridin-2-yl}-2,5-dichlorobenzene-1-sulfonamide]
IC50 [1, 3]: 465 nM
Ki [1, 4]: 7.1 nM
solubility kinetic at 90 min [2]: 224 µg/mL

COc1ncc(Cl)cc1S(=O)(=O)Nc1nccc(C#Cc2cnc3cnccn23)c1F [Example 26, 5-chloro-N-[3-fluoro-4-(2-{imidazo[1,2-a]pyrazin-3-yl}ethynyl)pyridin-2-yl]-2-methoxypyridine-3-sulfonamide]
IC50 [1, 3]: 556 nM
Ki [1, 4]: 8.5 nM
solubility kinetic at 90 min [2]: 241 µg/mL

COc1ncc(Cl)cc1S(=O)(=O)Nc1nccc(C#Cc2cnc(N)nc2C)c1F [Example 34, N-{4-[2-(2-amino-4-methylpyrimidin-5-yl)ethynyl]-3-fluoropyridin-2-yl}-5-chloro-2-methoxypyridine-3-sulfonamide]
IC50 [1, 3]: 658 nM
Ki [1, 4]: 10 nM
solubility kinetic at 90 min [2]: 238 µg/mL

COc1ccc(Cl)cc1S(=O)(=O)Nc1nccc(C#Cc2cnc3[nH]ncc3c2)c1F [Example 12, 5-chloro-N-[3-fluoro-4-(2-{1H-pyrazolo[3,4-b]pyridin-5-yl}ethynyl)pyridin-2-yl]-2-methoxybenzene-1-sulfonamide]
IC50 [1, 3]: 257 nM
Ki [1, 4]: 3.9 nM
solubility kinetic at 90 min [2]: 161 µg/mL

COc1ncc(Cl)cc1S(=O)(=O)Nc1nccc(C#Cc2cnc3c(N)cccn23)c1F [Example 8, N-{4-[2-(8-aminoimidazo[1,2-a]pyridin-3-yl)ethynyl]-3-fluoropyridin-2-yl}-5-chloro-2-methoxypyridine-3-sulfonamide]
IC50 [1, 5]: 9.9 nM
IC50 [1, 3]: 335 nM
Ki [1, 6]: 3.1 nM
Ki [1, 4]: 5.1 nM
solubility kinetic at 90 min [2]: 214 µg/mL

COc1ncc(Cl)cc1S(=O)(=O)Nc1nccc(C#Cc2cncc3ncsc23)c1F [Example 19, 5-chloro-N-[3-fluoro-4-(2-{[1,3]thiazolo[4,5-c]pyridin-7-yl}ethynyl)pyridin-2-yl]-2-methoxypyridine-3-sulfonamide]
IC50 [1, 5]: 12 nM
IC50 [1, 3]: 384 nM
Ki [1, 6]: 3.8 nM
Ki [1, 4]: 5.9 nM
solubility kinetic at 90 min [2]: 103 µg/mL

COc1ccc(Cl)cc1S(=O)(=O)Nc1nccc(C#Cc2cnc(N)nc2)c1F [Example 13, N-{4-[2-(2-aminopyrimidin-5-yl)ethynyl]-3-fluoropyridin-2-yl}-5-chloro-2-methoxybenzene-1-sulfonamide]
IC50 [1, 3]: 611 nM
Ki [1, 4]: 9.3 nM
solubility kinetic at 90 min [2]: 109 µg/mL

COc1ncc(Cl)cc1S(=O)(=O)Nc1nccc(C#Cc2cncc3c2cnn3C)c1F [Example 20, 5-chloro-N-[3-fluoro-4-(2-{1-methyl-1H-pyrazolo[3,4-c]pyridin-4-yl}ethynyl)pyridin-2-yl]-2-methoxypyridine-3-sulfonamide]
IC50 [1, 5]: 14.5 nM
IC50 [1, 3]: 324 nM
Ki [1, 6]: 4.6 nM
Ki [1, 4]: 4.9 nM
solubility kinetic at 90 min [2]: 70.6 µg/mL

COc1ncc(Cl)cc1S(=O)(=O)Nc1nccc(C#Cc2cnc3[nH]nc(OC)c3c2)c1F [Example 37, 5-chloro-N-[3-fluoro-4-(2-{3-methoxy-1H-pyrazolo[3,4-b]pyridin-5-yl}ethynyl)pyridin-2-yl]-2-methoxypyridine-3-sulfonamide]
IC50 [1, 3]: 20.9 nM
Ki [1, 4]: 0.3 nM
solubility kinetic at 90 min [2]: > 244 µg/mL

COc1ncc(Cl)cc1S(=O)(=O)Nc1nccc(C#Cc2cncc3[nH]ncc23)c1F [Example 21, 5-chloro-N-[3-fluoro-4-(2-{1H-pyrazolo[3,4-c]pyridin-4-yl}ethynyl)pyridin-2-yl]-2-methoxypyridine-3-sulfonamide]
IC50 [1, 3]: 158 nM
Ki [1, 4]: 2.4 nM
solubility kinetic at 90 min [2]: 221 µg/mL

COc1ncc(Cl)cc1S(=O)(=O)Nc1nccc(C#Cc2cncc3ncn(C)c23)c1F [Example 18, 5-chloro-N-[3-fluoro-4-(2-{1-methyl-1H-imidazo[4,5-c]pyridin-7-yl}ethynyl)pyridin-2-yl]-2-methoxypyridine-3-sulfonamide]
IC50 [1, 5]: 11.3 nM
IC50 [1, 3]: 365 nM
Ki [1, 6]: 3.6 nM
Ki [1, 4]: 5.6 nM
solubility kinetic at 90 min [2]: 24.3 µg/mL

COc1ncc(Cl)cc1S(=O)(=O)Nc1nccc(C#Cc2cnn3cccnc23)c1F [Example 31, 5-chloro-N-[3-fluoro-4-(2-{pyrazolo[1,5-a]pyrimidin-3-yl}ethynyl)pyridin-2-yl]-2-methoxypyridine-3-sulfonamide]
IC50 [1, 3]: 98.9 nM
Ki [1, 4]: 1.5 nM
solubility kinetic at 90 min [2]: > 243 µg/mL

O=S(=O)(Nc1nccc(C#Cc2cnc3[nH]ncc3c2)c1F)c1cc(Cl)ccc1Cl [Example 14, 2,5-dichloro-N-[3-fluoro-4-(2-{1H-pyrazolo[3,4-b]pyridin-5-yl}ethynyl)pyridin-2-yl]benzene-1-sulfonamide]
IC50 [1, 3]: 236 nM
Ki [1, 4]: 3.6 nM
solubility kinetic at 90 min [2]: 24.7 µg/mL

COc1ncc(Cl)cc1S(=O)(=O)Nc1ncc(F)c(C#Cc2cnc(N)nc2)c1F [Example 10, N-{4-[2-(2-aminopyrimidin-5-yl)ethynyl]-3,5-difluoropyridin-2-yl}-5-chloro-2-methoxypyridine-3-sulfonamide]
solubility kinetic at 90 min [2]: 138 µg/mL
